How the values were obtained:
A549-ACE2 [1] = assay: phospholipidosis EC50; higher = less potent phospholipidosis inducer
[2] = test system: A549-ACE2 infected with SARS-CoV-2; assay: morphology score (similarity to uninfected cells); higher = more like uninfected cells; conditions: 24 h
Caco-2 [3] = assay: cell viability relative to DMSO; higher = less toxic; conditions: 72 h
Vero E6 [4] = assay: as above; conditions: 72 h
U2OS [5] = assay: as above; conditions: 72 h
Calu-3 [6] = assay: as above; conditions: 72 h
HepG2 [7] = assay: as above; conditions: 72 h
A549-ACE2 [8] = assay: drug-induced phospholipidosis relative to tamoxifen; higher = more phospholipidosis
[9] = test system: A549-ACE2 infected with SARS-CoV-2; assay: cell count relative to DMSO; higher = less toxic; conditions: 24 h
U2OS [10] = assay: relative viability EC50 (midpoint between 100% and the lowest measured viability); higher = less toxic; conditions: 72 h
HepG2 [11] = assay: as above; conditions: 72 h
Caco-2 [12] = assay: drug sensitivity score (DSS) for viability; higher = more toxic; extreme values may be limits of the assay; conditions: 72 h
Vero E6 [13] = assay: as above; conditions: 72 h
U2OS [14] = assay: as above; conditions: 72 h
Calu-3 [15] = assay: as above; conditions: 72 h
HepG2 [16] = assay: as above; conditions: 72 h
[17] = test system: A549-ACE2 infected with SARS-CoV-2; assay: SARS-CoV-2 infection rate relative to DMSO; higher = more infection; conditions: 24 h
Caco-2 [18] = assay: relative viability EC50 (midpoint between 100% and the lowest measured viability); higher = less toxic; conditions: 72 h
Calu-3 [19] = assay: as above; conditions: 72 h

CCN1CCN(Cc2ccc(C(=O)Nc3ccc(C)c(Oc4ccc5c(c4)CC(=O)N5)c3)cc2C(F)(F)F)CC1 [DDR1-IN-1]
Conditions | SARS-CoV-2 infection rate [%] | cell count [%] | cell viability [%] | morphology score | phospholipidosis EC50 [nM]
A549-ACE2 [1], 24 h | – | – | – | – | 1390
A549-ACE2 [1], 48 h | – | – | – | – | 3200
A549-ACE2 [1], 72 h | – | – | – | – | 4190
Caco-2 [3], 1 nM | – | – | 102 | – | –
Caco-2 [3], 10 nM | – | – | 94.8 | – | –
Caco-2 [3], 100 nM | – | – | 101 | – | –
Caco-2 [3], 1000 nM | – | – | 88.1 | – | –
Caco-2 [3], 10000 nM | – | – | 58 | – | –
Calu-3 [6], 1 nM | – | – | 97.2 | – | –
Calu-3 [6], 10 nM | – | – | 101 | – | –
Calu-3 [6], 100 nM | – | – | 99.2 | – | –
Calu-3 [6], 1000 nM | – | – | 104 | – | –
Calu-3 [6], 10000 nM | – | – | 50.3 | – | –
HepG2 [7], 1 nM | – | – | 96.5 | – | –
HepG2 [7], 10 nM | – | – | 91.4 | – | –
HepG2 [7], 100 nM | – | – | 90.3 | – | –
HepG2 [7], 1000 nM | – | – | 104 | – | –
HepG2 [7], 10000 nM | – | – | 42.5 | – | –
U2OS [5], 1 nM | – | – | 100 | – | –
U2OS [5], 10 nM | – | – | 98.2 | – | –
U2OS [5], 100 nM | – | – | 99.6 | – | –
U2OS [5], 1000 nM | – | – | 94.5 | – | –
U2OS [5], 10000 nM | – | – | 79.8 | – | –
Vero E6 [4], 1 nM | – | – | 97.4 | – | –
Vero E6 [4], 10 nM | – | – | 99.5 | – | –
Vero E6 [4], 100 nM | – | – | 100 | – | –
Vero E6 [4], 1000 nM | – | – | 100 | – | –
Vero E6 [4], 10000 nM | – | – | 72.9 | – | –
[2], 0.1 µM | – | – | – | -0.13 | –
[2], 0.3 µM | – | – | – | -0.1 | –
[2], 1 µM | – | – | – | 0.26 | –
[2], 3 µM | – | – | – | 0.78 | –
[9], 0.1 µM | – | 102 | – | – | –
[9], 0.3 µM | – | 104 | – | – | –
[9], 1 µM | – | 114 | – | – | –
[9], 3 µM | – | 121 | – | – | –
[17], 0.1 µM | 98 | – | – | – | –
[17], 0.3 µM | 96 | – | – | – | –
[17], 1 µM | 61 | – | – | – | –
[17], 3 µM | 26 | – | – | – | –

drug-induced phospholipidosis [%], A549-ACE2 [8]
Conditions | 0.3 µM | 0.833333 µM | 3.33333 µM | 6.66667 µM | 10 µM | 30 µM
24 h | 10.6 | 33.4 | 86.8 | 106 | 121 | 89.6
48 h | 6.52 | 20.9 | 67.3 | 89.5 | 109 | 118
72 h | 6.39 | 17.7 | 60.8 | 89.3 | 107 | 126

Conditions | drug sensitivity score | relative viability EC50 [nM]
Caco-2 [12] | 3.9 | –
Calu-3 [15] | 2.3 | –
HepG2 [11] | – | 3520
HepG2 [16] | 2.8 | –
U2OS [10] | – | > 10000
U2OS [14] | 1.3 | –
Vero E6 [13] | 1.1 | –

CCn1c2ccccc2c2cc(Nc3ccnc(NCCCN4CCOCC4)n3)ccc21 [EHop-016]
Conditions | SARS-CoV-2 infection rate [%] | cell count [%] | cell viability [%] | morphology score | phospholipidosis EC50 [nM]
A549-ACE2 [1], 24 h | – | – | – | – | 895
A549-ACE2 [1], 48 h | – | – | – | – | 1390
A549-ACE2 [1], 72 h | – | – | – | – | 3130
Caco-2 [3], 1 nM | – | – | 91.4 | – | –
Caco-2 [3], 10 nM | – | – | 93.5 | – | –
Caco-2 [3], 100 nM | – | – | 97.4 | – | –
Caco-2 [3], 1000 nM | – | – | 85.5 | – | –
Caco-2 [3], 10000 nM | – | – | 31.2 | – | –
Calu-3 [6], 1 nM | – | – | 95 | – | –
Calu-3 [6], 10 nM | – | – | 98 | – | –
Calu-3 [6], 100 nM | – | – | 100 | – | –
Calu-3 [6], 1000 nM | – | – | 99 | – | –
Calu-3 [6], 10000 nM | – | – | 6.7 | – | –
HepG2 [7], 1 nM | – | – | 103 | – | –
HepG2 [7], 10 nM | – | – | 104 | – | –
HepG2 [7], 100 nM | – | – | 98.5 | – | –
HepG2 [7], 1000 nM | – | – | 98 | – | –
HepG2 [7], 10000 nM | – | – | 28.1 | – | –
U2OS [5], 1 nM | – | – | 100 | – | –
U2OS [5], 10 nM | – | – | 94.1 | – | –
U2OS [5], 100 nM | – | – | 101 | – | –
U2OS [5], 1000 nM | – | – | 91 | – | –
U2OS [5], 10000 nM | – | – | 34.6 | – | –
Vero E6 [4], 1 nM | – | – | 102 | – | –
Vero E6 [4], 10 nM | – | – | 97.2 | – | –
Vero E6 [4], 100 nM | – | – | 88.9 | – | –
Vero E6 [4], 1000 nM | – | – | 94.3 | – | –
Vero E6 [4], 10000 nM | – | – | 64.3 | – | –
[2], 0.1 µM | – | – | – | -0.12 | –
[2], 0.3 µM | – | – | – | -0.03 | –
[2], 1 µM | – | – | – | 0.46 | –
[2], 3 µM | – | – | – | 0.79 | –
[9], 0.1 µM | – | 93 | – | – | –
[9], 0.3 µM | – | 100 | – | – | –
[9], 1 µM | – | 103 | – | – | –
[9], 3 µM | – | 118 | – | – | –
[17], 0.1 µM | 98 | – | – | – | –
[17], 0.3 µM | 97 | – | – | – | –
[17], 1 µM | 70 | – | – | – | –
[17], 3 µM | 23 | – | – | – | –

drug-induced phospholipidosis [%], A549-ACE2 [8]
Conditions | 0.3 µM | 0.833333 µM | 3.33333 µM | 6.66667 µM | 10 µM | 30 µM
24 h | 3.51 | 16.7 | 47 | 47.4 | 52.6 | 11.5
48 h | 4.02 | 8.22 | 56.9 | 63.9 | 72.1 | 40.9
72 h | 3.76 | 2.65 | 48.2 | 69.6 | 81.3 | –

Conditions | drug sensitivity score | relative viability EC50 [nM]
Caco-2 [12] | 6.1 | –
Caco-2 [18] | – | 1690
Calu-3 [15] | 5.3 | –
Calu-3 [19] | – | 3090
HepG2 [11] | – | 2960
HepG2 [16] | 4.2 | –
U2OS [10] | – | 2060
U2OS [14] | 5.1 | –
Vero E6 [13] | 2.6 | –

Source: the supplement of paper PMC13380429
